Results as given in article PMC9020709, “Hepcidin is potential regulator for renin activity” (PLoS ONE, 2022).
Entries after “also recorded” stand apart in the source; their conditions may differ. Where no end group is shown, it is not given here.

Legend:
[1] = test system: angiotensin-converting enzyme 1 (ACE1); assay: ACE1 inhibition screening kit (fluorometric); type: biochemical
Protocol: (§1) Activity measurements for all three enzymes (renin, ACE1 and ACE2) were carried out using commercial inhibition kits following manufacturer’s instructions. Screening kits were purchased from Biovision (Biovision, Inc. San Francisco, CA). Candidate inhibitors used were human hepcidin-25/LEAP-1 (disulfide bonds between Cys7–Cys23, Cys10–Cys13, Cys11–Cys19, and Cys14–Cys22, purity assessed by HPLC ≥ 98.0%) purchased from Peptides International (Peptides International Inc, Louisville, KY) as well as N-terminal part of hepcidin, Asp-Thr-His-Phe-Pro (hepcidin-5) synthetized by Proteogenix (Schiltigheim, France).
(§2) All kits included the enzyme, substrate, and enzyme inhibitor as negative control. […] DABCYL-EDANS is well-known FRET pair where fluorescence is quenched when peptide is uncleaved. Fluorescence signal is increased after peptide is cleaved and EDANS molecule is free in the solution. The fluorescence intensity was recorded and calculated as follows. […] Both candidate inhibitors were measured with final sample concentrations of 10 nM, 100 nM and 500 nM. […] Fluorescence measurement was performed using Perkin Elmer UV/VIS Envision multimode plate reader. […] Fluorescence was recorded every 60 s for 60 min at 37°C. […]
Briefly, ACE1 enzyme solution was added to a 96-well plate and each diluted candidate enzyme inhibitors were added. […] Fluorescence was recorded every 60s for 100 min at 37°C. […]

renin = assay: Renin inhibitor screening kit (fluorometric FRET, DABCYL-EDANS); type: biochemical; settings: for Mean inhibitory effect on renin activity: 5 min pre-incubation at 37°C, read every 60 s for 60 min at 37°C, ex/em 328/552 nm; for Renin inhibition (in words): 10, 100 and 500 nM, in vitro, 37°C
Protocol: as §1
All kits included the enzyme, substrate, and enzyme inhibitor as negative control. The fluorophore labelled substate was cleaved by the enzyme. The used fluorophores were a synthetic o-aminobenzoyl peptide for ACE1, 7-Methoxycoumarin-4-acetic acid (MCA) for ACE2 and 5-((2-Aminoethyl)amino)naphthalene-1-sulfonic acid (EDANS) for renin. DABCYL-EDANS is well-known FRET pair where fluorescence is quenched when peptide is uncleaved. Fluorescence signal is increased after peptide is cleaved and EDANS molecule is free in the solution. The fluorescence intensity was recorded and calculated as follows. According to renin inhibitor screening kit instructions hepcidin-25 and hepcidin-5 were first pipetted to a black ForteBio’s 96-well plate. Renin enzyme solution was added and mixed. Both candidate inhibitors were measured with final sample concentrations of 10 nM, 100 nM and 500 nM. The plate was incubated for 5 min at 37°C. Finally, substrate solution was added into each well. Fluorescence measurement was performed using Perkin Elmer UV/VIS Envision multimode plate reader. Excitation and emission wavelengths were 328 and 552 nm, respectively. Fluorescence was recorded every 60 s for 60 min at 37°C. Inhibitory activity of renin was calculated as follows: Renininhibitoryactivity(%)=1−Activitywithsample/Activitywithoutsamplex100 where “Activity with sample” is the slope calculated from the linear range of the fluorescence plot at the presence of candidate inhibitor. Activity without the sample represents the slope without any sample in the well.
Mean enzyme inhibitory activities with the standard error of means were calculated at different concentrations. Data analysis was performed using Microsoft Office 365 ProPlus Excel version 1902 for Windows. The hepcidin–renin binding data was treated as follows: Background was subtracted, and the data was normalised to allow comparison between experiments. The normalised data was analysed with […] regression analysis in GraphPad Prism 5.02 (GraphPad Software, La Jolla, CA) assuming one-site specific binding.

human renin = assay: Bio-layer interferometry, hepcidin-renin binding; settings: biotinylated renin on sensors; analyte 12.5-100 μM; ForteBio Octet RED384, PBS pH 7.2 and 150 mM NaCl, 27°C; association 0–1200 s, dissociation 1200–2000 s
Protocol: Human prorenin coding gene was ordered from GeneArt in pcDNA3.1(+) as fusion protein with a C-terminal His-tag. The pcDNA3.1 vector confers ampicillin resistance. Plasmid was dissolved in 50 μl of TE-EF and the amount of 100 ng was transferred into Escherichia coli TOP10 cells (Invitrogen, UK) with the heat shock method (30 s). In the next day colonies were picked for midiprep isolation. A single colony was picked and cultured in 5 ml media supplemented with 100 μg/ml ampicillin and 5 mM glucose for 7 hours after which it is moved to 200 ml LB media, which included ampicillin and glucose, and grown overnight at 37°C 220 rpm. The plasmid DNA was isolated using Nucleobond Xtra Midi Plus EF Kit (Macherey-Nagel, #7404220). Plasmid DNA produced was endotoxin-free. Human prorenin was then produced in ExpiCHO cells.
Cell pellet was re-suspended in 20 ml buffer (50 mM Hepes, 200 mM NaCl, 10% Glycerol, 1 mM TCEP, pH 7.5) and protease inhibitor tablet was added. Cell lysis was made with sonicator (1 min, 50%, 2 sec on/5 sec off cycle). […]
Biotinylation of renin was done using NHS-PEG4-Biotin (ThermoFisher Scientific) at 1:1 molar ratio. […] Concentration of biotinylated protein was measured using NanoDrop™ One Uv-Vis spectrophotometer (ThermoFisher Scientific). […]
(§3) Mean enzyme inhibitory activities with the standard error of means were calculated at different concentrations. […]

[2] = test system: angiotensin-converting enzyme 2 (ACE2); assay: ACE2 inhibition screening kit (fluorometric); type: biochemical; settings: 10, 100 and 500 nM; 15 min pre-incubation at room temperature, read every 60 s for 60 min, ex/em 320/420 nm; n = 3-6-4 (hepcidin-25), 3-6-3 (hepcidin-5)
Protocol: as §1
as §2, with “control. The fluorophore labelled substate was cleaved by the enzyme.” for “control.”
as §3

| Substance | ACE1 inhibitory activity (strongest) ([1]; 500 nM, 15 min pre-incubation at 37°C, read every 60 s for 100 min at 37°C, ex/em 330/430 nm, n = 6) [%] | Mean inhibitory effect on renin activity (renin; 10 nM peptide, n = 2) [%] | Mean inhibitory effect on renin activity (renin; 100 nM peptide, n = 3) [%] | Mean inhibitory effect on renin activity (renin; 500 nM peptide, n = 3) [%] | Renin inhibition (in words) (renin) | Binding to renin (association and dissociation curves, in words) (human renin) | ACE2 inhibition (in words) [2] | ACE1 inhibition (in words) ([1]; 10, 100 and 500 nM, 37°C, n = 5-6-1 for hepcidin-25) |
| --- | --- | --- | --- | --- | --- | --- | --- | --- |
| Asp-Thr-His-Phe-Pro [hepcidin-5, N-terminal part of hepcidin, synthetized by Proteogenix] | 34.8 | 50.1 | 50.0 | 58.6 | stronger effect on renin than hepcidin-25 | – | – | – |
| hepcidin-20: control peptide, purchased from Pepnet; truncated isoform without N-terminal hepcidin-5 (ICIFCCGCCHRSKCGMCCKT; ends and bridges not checked; cysteine pairing not given here; UniProt P81172 65-84, looked up) | – | – | – | – | – | cannot bind to renin | – | – |
| hepcidin-25: human hepcidin-25/LEAP-1 (disulfide bonds between Cys7–Cys23, Cys10–Cys13, Cys11–Cys19, and Cys14–Cys22), purchased from Peptides International | – | 20.4 | 29.2 | 38.3 | has an inhibitory effect on renin in vitro; also recorded: can bind to renin enzyme and inhibit its activity in vitro; also recorded: can bind to the active site of renin and inhibit its activity in vitro | concentration dependent | not inhibited remarkably | not inhibited remarkably; also recorded: low inhibitory activity |
